In the first data set the test system is amyloid precursor protein (APP) proteolysis. As to the kind of experiment: Repressor Release Assay (RRA). It counts as cell-based. Conditions: Conc 10 μg/mL; luciferase activity over diluent control; read-out: APPI Fold Increase. The essentials: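 This repressor release assay monitors APP proteolysis in mammalian cells. Transfected CHO-K1 cells (pRSVO-luc plus APP-lacI) were seeded at […], treated with compound diluted in 25 mM Hepes, then incubated 36-48 hours. After replacing media with PBS and adding LucLite lysis/substrate buffer, luminescence was measured, and fold increase over diluent control was calculated.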
Take `CC(c1ccccc1)C(CO)NS(=O)(=O)c1ccc(Br)s1` (racemic) [Example 15, 5-bromo-N-[1-(hydroxymethyl)-2-phenylpropyl]thiophene-2-sulfonamide]: the fold induction at 10 µg/mL turned out to be 3.08.

For the compound `CC[C@H](C)[C@H](NS(=O)(=O)c1cccs1)C(O)C1CCCC1` (stereo partly drawn) [Example 140, N-{(S,S)-1-[cyclopentyl(hydroxy)methyl]-2-methylbutyl}thiophene-2-sulfonamide], the fold induction at 10 µg/mL was determined as 2.57.

Staying with this data set, now noted: Conc 20 μg/mL; luciferase activity over diluent control; read-out: APPI Fold Increase.
As for `CCC(CC)[C@H](NS(=O)(=O)c1ccc(Cl)s1)C(C)O` (stereo partly drawn) [Example 222, 5-Chloro-N-[(S)-2-ethyl-1-(1-hydroxyethyl)butyl]thiophene-2-sulfonamide], the fold induction at 20 µg/mL was 7.2.

Consider `O=S(=O)(NC(CO)C1CCSCC1)c1ccc(Cl)s1` (stereo not shown) [Example 224, 5-Chloro-N-(2-hydroxy-1-tetrahydro-H-thiopyran-4-ylethyl)thiophene-2-sulfonamide], for which the fold induction at 20 µg/mL was found to be 7.2.

Consider `CC[C@H](C)[C@@H](C=O)NS(=O)(=O)c1ccc(Cl)s1` [Example 118, 5-Chloro-N-[(S,S)-1-formyl-2-methylbutyl]thiophene-2 sulfonamide], for which the fold induction at 20 µg/mL stood at 4.8.

`CCC[C@H](CC(C)C)[C@@H](CO)NS(=O)(=O)c1ccc(Cl)s1` [Example 35, 5-chloro-N-[(1S,2R)-1-(hydroxymethyl)-4-methyl-2-propylpentyl]thiophene-2-sulfonamide]: the fold induction at 20 µg/mL came out at 3.7.

Consider `CCCCC[C@H](c1ccc(OC)cc1)[C@@H](CO)NS(=O)(=O)c1ccc(Br)s1` [Example 64, 5-bromo-N-[(1S,2R)-1-(hydroxymethyl)-2-(4-methoxyphenyl)heptyl]thiophene-2-sulfonamide], for which the fold induction at 20 µg/mL came out at 2.9.

Take `CCCCCC(NCCO)[C@@H](CO)NS(=O)(=O)c1ccc(Cl)s1` (stereo partly drawn) [Example 83, 5-chloro-N-[(1S)-2-[(2-hydroxyethyl)amino]-1-(hydroxymethyl)heptyl]-2-thiophenesulfonamide]: the fold induction at 20 µg/mL stood at 1.7.

For the compound `CCNC1CCC([C@@H](CO)NS(=O)(=O)c2ccc(Cl)s2)CC1` (stereo partly drawn) [Example 213, 5-chloro-N-[(S)-2-hydroxy-1-(4-ethylaminocyclohexyl)ethyl]thiophene-2-sulfonamide], the fold induction at 20 µg/mL came to 1.6.

On to `CCC(NCc1ccccc1)[C@@H](CO)NS(=O)(=O)c1ccc(Cl)s1` (stereo partly drawn) [Example 85, N-[(1S)-2-(benzylamino)-1-(hydroxymethyl)butyl]-5-chloro-2-thiophenesulfonamide], for which the fold induction at 20 µg/mL is 8.9.

As for `CCCCCC[C@@H](CC)[C@@H](CO)NS(=O)(=O)c1ccc(Cl)s1` [Example 77A, 5-Chloro-N-[(1S,2R)-2-ethyl-1-(hydroxymethyl)octyl]thiophene-2-sulfonamide], the fold induction at 20 µg/mL turned out to be 3.1.

System in a further data set: not given
Test: not given
Conditions: not given
On to `CCC(CC)[C@H](NS(=O)(=O)c1ccc(Cl)s1)C(C)O` (stereo partly drawn) [Example 222, 5-Chloro-N-[(S)-2-ethyl-1-(1-hydroxyethyl)butyl]thiophene-2-sulfonamide], for which the melting point was in the range of 95 to 98 °C.

For `O=S(=O)(NC(CO)C1CCSCC1)c1ccc(Cl)s1` (stereo not shown) [Example 224, 5-Chloro-N-(2-hydroxy-1-tetrahydro-H-thiopyran-4-ylethyl)thiophene-2-sulfonamide], the melting point was in the range of 108 to 110 °C.

As a reminder, the melting point is the temperature of the solid-liquid transition.

These data come from US6878742B2, “Heterocyclic sulfonamide inhibitors of beta amyloid production” (Wyeth, priority 2000, dated 2005).
